Like-named read-outs stand apart in the source and are kept apart here.
Key:
ecNOS protein [1] = test: Overexpression of Rho mutants, immunoblot of ecNOS protein; format: cell-based, bovine; conditions: about 24 h after transfection
Method: For transfection studies, bovine rather than human endothelial cells were used because of their higher transfection efficiency by the calcium-phosphate precipitation method (12% vs <4%) (15). Bovine endothelial cells (60-70% confluent) were transfected with 15 mg of the indicated cDNAs: the insertless vector (pcDNA3), pcDNA3-c-myc-wtRhoA (wildtype RhoA), and pcDNA3-c-myc-N 19RhoA (dominant-negative RhoA mutant) (Gebbink, M et al., J Cell Biol, 1997, 137:1603-1613). As an internal control for transfection efficiency, pCMV. b-Gal plasmid (5 mg) was co-transfected. Preliminary results using b-galactosidase staining indicate that cellular transfection efficiency was approximately 10% to 14%. The b-galactosidase activity was determined by a chemiluminescence assay (Dual-Light, Tropix, Bedford, Mass.) using a Berthold L9501 luminometer. Approximately 24 h after transfection, cells were harvested for immunoblot analyses of ecNOS expression. The ecNOS protein levels were then standardized to the corresponding levels of transfected RhoA expression as determined by antisera to the corresponding c-myc tag.

RhoA [2] = test: Rho membrane translocation, immunoblot of membrane and cytosol, RhoA; format: cell-based, human; conditions: mevastatin
Method: (§1) Autoradiography was performed as described earlier.

RhoA [3] = test: Rho GTP-binding activity, immunoprecipitation of [35S]GTP S-labeled RhoA; format: cell-based, human; parameters: RhoA GTP-binding activity: dose or concentration left out as unconfirmed
Method: (§2) The Rho GTP-binding activity was determined by immunoprecipitation of [^35 S]GTP S-labeled Rho. Briefly, membrane and cytosolic proteins were isolated as previously desribed (Liao, J K and Homcy, C J, J Clin Invest, 1993, 92:2168-2172). Proteins (20 mg) from control and treated endothelial cells were incubated for 30 min at 37° C. in a buffer containing [35 S]GTP S (20 nM), GTP (2 mM), MgCl22 (5 mM), EGTA (0.1 mM), NaCl (50 mM), creatinine phosphate (4 mM), phosphocreatinine kinase (5 units), ATP (0.1 mM), dithiothreitol (1 mM), leupeptin ([…]), aprotinin (50 mg/ml), and phenylmethanesulfonyl fluoride (PMSF, 2 mM). The assay was terminated with excess unlabeled GTP S (100 mM).
(§3) Samples were then resuspended in 100 ml of immunopricipitation buffer containing Triton-X (1%), SDS (0.1%), NaCl (150 mM), EDTA (5 mM), Tris-HCl (25 mM, pH 7.4), leupeptin (10 mg/ml), aprotinin (10 mg/ml), and PMSF (2 mM). […]
(§4) The pellets were washed four times in a buffer containing HEPES (50 mM, pH 7.4), NaF (100 mM), sodium phosphate (50 mM), NaCl (100 mM), Triton X-100 (1%), and SDS (0.1%). The final pellet containing the immunoprecipitated [35 S]GTP S-labeled Rho proteins was counted in a liquid scintillation counter (LS 1800, Beckman Instruments, Inc. Fullerton, Calif.). Nonspecific activity was determined in the presence of excess unlabeled GTP S (100 mM).

RhoB [4] = test: Rho membrane translocation, immunoblot of membrane and cytosol, RhoB; format: cell-based, human; conditions: mevastatin
Method: as §1

ecNOS mRNA = test: Northern blotting of ecNOS steady-state mRNA in endothelial cells; format: cell-based, human; parameters: ecNOS mRNA levels increased to / ecNOS mRNA levels, % of basal levels / effect on basal ecNOS mRNA levels: unit of the concentration uncertain; conditions: for effect on ecNOS expression (mRNA): 24 hours (FIGS. 9, 11), anaphicoline data not shown
Method: (§5) Equal amounts of total RNA (10-20 mg) were separated by 1.2% formaldehyde-agarose gel electrophoresis and transferred overnight onto Hybond nylon membranes. […] All Northern blots were subjected to stringent washing conditions (0.2× SSC/0.1% SDS at 65° C.) prior to autoradiography. RNA loading was determined by rehybridization with human GAPDH probe.

RhoB [5] = test: Rho GTP-binding activity, immunoprecipitation of [35S]GTP S-labeled RhoB; format: cell-based, human; parameters: RhoB GTP-binding activity: dose or concentration left out as unconfirmed
Method: as §2, §3, §4

ecNOS = ecNOS activity, LNMA-inhibitable nitrite production (modified nitrite assay); format: cell-based, human; conditions: for nitrite production: L-mevalonate
ecNOS protein [6] = system: ecNOS protein; parameters: ecNOS protein levels: dose or concentration left out as unconfirmed
[7] = system: cerebral ischemia, left middle cerebral artery (MCA) occlusion; test: Murine model of cerebral vascular ischemia (MCA occlusion); format: in vivo, SV-129 mice; conditions: lovastatin, at higher relative concentrations (data not shown)
Text: Ischemia was produced by occluding the left middle cerebral artery (MCA) with a coated 8.0 nylon monofilament under anesthesia as described (Huang, Z et al., J Cereb Blood Flow Metab, 1996, 16:981-987, Huang, Z et al., Science, 1994, 265:1883-1885, Hara, H et al., J Cereb Blood Flow Metab, 1997, 1:515-526). Arterial blood pressure, heart rate, arterial oxygen pressure, and partial pressure of carbon dioxide were monitored as described (Huang, Z et al., J Cereb Blood Flow Metab, 1996, 16:981-987, Huang, Z et al., Science, 1994, 265:1883-1885, Hara, H et al., J Cereb Blood Flow Metab, 1997, 1:515-526). The filaments were withdrawn after 2 hours and after 24 h, mice were either sacrificed or tested for neurological deficits using a well-established, standardized, observer-blinded protocol as described (Huang, Z et al., J Cereb Blood Flow Metab, 1996, 16:981-987, Huang, Z et al., Science, 1994, 265:1883-1885, Hara, H et al., J Cereb Blood Flow Metab, 1997, 1:515-526). The motor deficit score range from 0 (no deficit) to 2 (complete deficit).
Brains were divided into five coronal 2-mm sections using a mouse brain matrix (RBM-200C, Activated Systems, Ann Arbor, Mich., USA). Infarction volume was quantitated with an image analysis system (M4, St. Catharines, Ontario, Canada) on 2% 2,3,5-triphenyltetrazolium chloride stained 2-mm slices. The levels of serum cholesterol, creatinine and transaminases were determined by the Tufts University Veterinary Diagnostic Laboratory (Grafton, Mass.).

[8] = system: G-protein as and b-actin mRNA; test: Northern blotting of G-protein as and b-actin mRNA (selectivity); format: cell-based, human; conditions: normoxic or hypoxic conditions
Method: as §5

[9] = mevastatin alone or in combination with GGPP or FPP

Text for human endothelial cells: Confluent endothelial cells were used for all treatment conditions.

Which “increase in ecNOS protein levels” value (ecNOS protein [1]) does the source give for N19RhoA here?
The value was 150±5%.

What does the source list for CC[C@H](C)C(=O)O[C@H]1CCC=C2C=C[C@H](C)[C@H](CC[C@@H]3C[C@@H](O)CC(=O)O3)[C@H]21 [mevastatin, Mevastatin]?
decrease in membrane localization of RhoA (RhoA [2]): 60±5%; increase in RhoA in the cytosol (RhoA [2]): 65±4%; effect on cytosolic RhoA activity (RhoA [3]; [9]): not affected; decrease in membrane localization of RhoB (RhoB [4]): 78±6%; increase in RhoB in the cytosol (RhoB [4]): 87±7%; concentrations that produce cytotoxicity (human endothelial cells): > 50 µM; observable adverse effects on cellular morphology / viability (human endothelial cells): no observable adverse effects; potency on a molar basis compared to simvastatin (ecNOS mRNA; upregulation of ecNOS): approximately ten times less potent; potency on a molar basis compared with lovastatin (ecNOS mRNA; upregulation of ecNOS): equally potent; effect on cytosolic RhoB activity (RhoB [5]; [9]): not affected

For L-mevalonate, which nitrite production (ecNOS) is on record?
Its nitrite production is 8.6±2.9 nmol/500,000 cells/24 h.

And the nitrite production (ecNOS; 3% O2)?
Its nitrite production is 9.6±1.3 nmol/500,000 cells/24 h.

What about the “effect of co-treatment on upregulation of ecNOS expression by simvastatin alone” value (ecNOS protein [6]; L-mevalonate (100) + simvastatin (1)) of the same molecule?
Its value is “completely reversed”.

And the “effect on basal ecNOS expression” value (ecNOS protein [6]; L-mevalonate alone (100))?
Its value is “did not have any appreciable effects”.

What about the ecNOS protein levels (ecNOS protein [6]; L-mevalonic acid (400) co-treatment with simvastatin, hypoxia, 48 h) of the same molecule?
The ecNOS protein levels was 35±2.4%.

And the ecNOS protein levels (ecNOS protein [6]; L-mevalonic acid alone, cells exposed to hypoxia)?
The ecNOS protein levels was 25±3.9%.

What about the “observable adverse effects on cellular morphology / viability” value (human endothelial cells) of the same molecule?
Its value is “no observable adverse effects”.

Which results are given for C=C1[C@@H](C)[C@H]2[C@H](Cc3ccccc3)NC(=O)[C@]23[C@H](OC(C)=O)/C=C/[C@@](C)(O)C(=O)[C@@H](C)C/C=C/[C@H]3[C@@H]1O [Cytochalasin D]?
nonspecific cytotoxicity as cause of increased ecNOS expression (human endothelial cells): does not result from nonspecific cytotoxicity; effect on ecNOS expression (mRNA) (ecNOS mRNA): upregulation of ecNOS

Which results are given for CC[C@H](C)C(=O)O[C@H]1C[C@@H](C)C=C2C=C[C@H](C)[C@H](CC[C@@H]3C[C@@H](O)CC(=O)O3)[C@H]21 [lovastatin]?
reduction of cerebral infarct size [7]: also occurred with lovastatin treatment; concentration giving similar findings on ecNOS activity, compared to that of simvastatin (ecNOS; normoxia and hypoxia): 10 fold higher; effect on ecNOS expression (ecNOS protein [6]; not chemically-activated statin (10)): no effect; change in G-protein as and b-actin mRNA levels [8]: Neither simvastatin nor lovastatin caused any significant change; increase in ecNOS mRNA levels compared to ox-LDL alone (ecNOS mRNA; co-treatment with ox-LDL, lovastatin 10 mmol/L, 24 h): 3.6 fold; ecNOS message increased to (ecNOS mRNA; lovastatin (10 μM) alone): 410±21%; ecNOS message increased to (ecNOS mRNA; lovastatin (10 μM) under hypoxia): 350±27%; increase in ecNOS mRNA levels compared to untreated cells (ecNOS mRNA; lovastatin alone): 36%; increase in ecNOS mRNA level compared to untreated cells (ecNOS mRNA; ox-LDL + lovastatin 10 mmol/L, 24 h): 40±9%

What does the source list for C3 transferase?
nitrite accumulation (ecNOS): 31±2.1 nmol/500,000 cells/24 hours; increase in nitrite accumulation (ecNOS; 24 h): 3 fold; increases in ecNOS expression at lower concentrations (ecNOS protein [6]): correspondingly smaller increases; ecNOS protein levels augmented by (ecNOS protein [6]; 48 h): 250±10%; observable adverse effects on cellular morphology / viability (human endothelial cells): no observable adverse effects

CC(C)=CCC/C(C)=C/CC/C(C)=C/CC/C(C)=C/COP(=O)(O)OP(=O)(O)O [GGPP, geranylgeranylpyrophosphate] was tested. Which “RhoA GTP-binding activity” value (RhoA [3]) did it give?
Its value is 4.1 ± 0.3 fmol/mg/min.

What about the “observable adverse effects on cellular morphology / viability” value (human endothelial cells) of the same molecule?
Its value is “no observable adverse effects”.

And the “effect on basal ecNOS mRNA levels” value (ecNOS mRNA; GGPP (10 (unit uncertain)) alone)?
Its value is “did not significantly affect”.

Which “effect on ecNOS expression (mRNA)” value (ecNOS mRNA) does the source give for anaphicoline here?
Its value is “do not increase ecNOS expression”.

Which results are given for CC(C)=CCC/C(C)=C/CC/C(C)=C/COP(=O)(O)OP(=O)(O)O [FPP, farnesylpyrophosphate]?
observable adverse effects on cellular morphology / viability (human endothelial cells): no observable adverse effects; RhoB GTP-binding activity (RhoB [5]): 2.7 ± 0.5 fmol/mg/min

For CC(=O)C(C)=NO [BDM, 2,3-butanedione 2-monoxime], which “nonspecific cytotoxicity as cause of increased ecNOS expression” value (human endothelial cells) is on record?
Its value is “does not result from nonspecific cytotoxicity”.

Which “effect on ecNOS expression (mRNA)” value (ecNOS mRNA) does the source give for COC(=O)Nc1nc2cc(C(=O)c3cccs3)ccc2[nH]1 [nocodazole, Methyl-(5-[2-thienylcarbonyl]-1H-benzimidazol-2-yl)carbamate] here?
Its value is “do not increase ecNOS expression”.

With “wtRhoA: c-myc-tagged wildtype RhoA overexpressed by transfection” as the molecule, how does the “reduction of basal ecNOS protein expression” value (ecNOS protein [1]) read?
Its value is 15±4%.

Reference: patent US6696480B2, “Upregulation of type III endothelial cell nitric oxide synthase by agents that disrupt actin cytoskeletal organization” (Brigham and Women's Hospital, Inc., priority 1998, dated 2004)
